Measured values from patent publication US7273866B2, “2-aryl thiazole derivatives as KCNQ modulators” (Bristol-Myers Squibb Company, priority 2002, dated 2007).
pEC50: −log10 of the molar value.

Tested on: KCNQ channels
Assay: Thallium flux assay for KCNQ channel openers
Assay type: cell-based
Details: HEK-293 cells stably transfected with a KCNQ family member; for Min. conc. response: minimal active concentration: lowest concentration giving signal amplitude >= four standard deviations of negative controls; for pEC50: thallium flux, 10 point concentration series
Protocol: Thallium Flux Assay for KCNQ channel Openers. The thallium assay is a modification of that published by Weaver and is referenced in its entirety (Weaver, C. D. WO 02/31508, 2002).
Approximately 20,000 cells/well of an HEK-293 cell line stably transfected with one of the members of the KCNQ family were plated into clear-bottom, black-walled, poly-D-lysine coated, 384 well assay plates in 20 μl/well of low chloride plating medium. Low chloride plating medium was composed of the following: sodium gluconate, 109 mM; potassium gluconate, 5.4 mM; hemi-calcium gluconate, 3.6 mM; magnesium sulfate, 0.8 mM; sodium bicarbonate, 26.2 mM; sodium phosphate monobasic, 1.2 mM; glutamine, 2 mM; glucose, 5 mM; 4-(2-hydroxyethyl)-1-piperazineethanesulfonic acid (HEPES) (pH 7.3) 10 mM, MEM vitamin solution (10× concentration of vitamins, Gibco/LifeTechnologies 11120-052) and MEM amino acid solution (1× concentration of amino acids, Gibco/LifeTechnologies 11130-051).
Following overnight incubation in a 5% CO2 incubator at 37° C., the cells in the plates were loaded with 20 μl/well of a dye loading solution containing the commercially available thallium-sensitive fluorescent dye BTC-AM, the acetomethoxy ester of BTC (see U.S. Pat. No. 5,501,980) (2 μM) and pluronic acid F-127 (Molecular Probes P 6867) (0.02% w/v) in chloride free assay buffer. Chloride free assay buffer was composed of the following: sodium gluconate, 140 mM; potassium gluconate, 2.5 mM; hemi-calcium gluconate, 6 mM; hemi-magnesium gluconate, 2 mM; glucose, 5 mM; HEPES (pH 7.3), 10 mM.
Following incubation in the dye loading solution for from 45-90 min at room temperature, the dye loading solution was removed by aspiration and replaced with 40 μl/well of chloride free assay buffer.
Prior to addition to cell plates, test compound and standard compounds were dissolved in DMSO to 3 mM concentration. Compounds were then diluted from the 3 mM stock to 100-fold over the final assay concentration in DMSO. Finally, compounds in DMSO were diluted from 100-fold over the final assay concentration to 5-fold over the final assay concentration in chloride free assay buffer.
Ten μl/well of compounds at 5-fold over the final assay concentration were then added to the cell plates. This represents a 1:5 dilution, yielding the final test concentration. The wells used for test compounds were A1-P20. Wells A21-P22 contained a standard opener and a maximally efficacious concentration (positive control). Wells A23-P24 contained chloride free assay buffer containing 1% DMSO (negative control).
Following addition of test compounds, the plates were loaded onto the Molecular Devices FLIPR. The 488 nm line of the argon laser was used to excite the BTC and the emission filter was a 540(+/−30) nm. Images were collected at 1 Hz. Ten seconds of baseline were collected and then the FLIPR was used to add 13 μl/well of a stimulus buffer composed of 7.5 mM Tl2SO4 in chloride free assay buffer. Images were collected for an additional 60 seconds.
For data analysis, the amplitude of the average of the negative controls was subtracted from all wells. The amplitudes of the test compounds were then compared to the value of four standard deviations of the negative control wells. The lowest concentration of a test compound sufficient to generate a signal amplitude greater than or equal to four standard deviations from the amplitude of the negative controls was defined as the minimal active concentration.
For generating EC50 values, compounds were serially diluted in 1:3 volume increments to produce a 10 point concentration series. EC50 values were calculated by fitting the resulting amplitudes to a single-site logistic equation. EC50 was defined as the concentration of test compound required to yield 50% of the maximal response. Maximal response (Maximal opening) was the largest signal amplitude divided by the negative control amplitude generated by any concentration of a test compound. […]

Row | pEC50 | Compound | Min. conc. response [µM]
1 | 6.00 to 7.30 | C[C@H](NC(=O)c1sc(-c2ncccc2CN2CCOCC2)nc1C(F)(F)F)c1cccc(-c2cccnc2)c1 [Example 67, (S)-2-[3-(4-morpholinylmethyl)pyridin-2-yl]-4-(trifluoromethyl)-N-[1-[3-(3-pyridinyl)phenyl]ethyl]-5-thiazolecarboxamide] | 30
2 | 4.70 to 6.00 | CCN(Cc1cccnc1-c1nc(C(F)(F)F)c(C(=O)N[C@@H](C)c2cccc(-c3cccnc3)c2)s1)C(C)C [Example 68, (S)-2-[3-[ethyl(2-propyl)aminomethyl]pyridin-2-yl]-4-(trifluoromethyl)-N-[1-[3-(3-pyridinyl)phenyl]ethyl]-5-thiazolecarboxamide] | 30
3 | 6.00 to 7.30 | CCN(Cc1ccncc1)Cc1cccnc1-c1nc(C(F)(F)F)c(C(=O)N[C@@H](C)c2cccc(-c3cccnc3)c2)s1 [Example 69, (S)-2-[3-[(4-pyridinylmethyl)ethylaminomethyl]pyridin-2-yl]-4-(trifluoromethyl)-N-[H-[3-(3-pyridinyl)phenyl]ethyl]-5-thiazolecarboxamide] | 3
4 | 6.00 to 7.30 | CCN(Cc1cccnc1-c1nc(C(F)(F)F)c(C(=O)NC(C)c2cccc(OC(F)(F)F)c2)s1)C(C)C (centres unmarked) [Example 70, 2-[3-[ethyl(2-propyl)aminomethyl]pyridin-2-yl]-4-(trifluoromethyl)-N-[1-[3-(trifluoromethoxy)phenyl]ethyl]-5-thiazolecarboxamide] | 3
5 | 6.00 to 7.30 | Cc1cccnc1-c1nc(C(F)(F)F)c(C(=O)N[C@@H](C)c2cccc(-c3cccnc3)c2)s1 [Example 73, (S)-2-(3-methylpyridin-2-yl)-4-(trifluoromethyl)-N-[1-[3-(3-pyridinyl)phenyl]ethyl]-5-thiazolecarboxamide] | 0.3
6 | 4.70 to 6.00 | CC(NC(=O)c1sc(-c2ccccc2CN(C)C)nc1C(F)(F)F)c1cccc(OC(F)(F)F)c1 (centres unmarked) [Example 74] | 3
7 | 6.00 to 7.30 | COc1cccc([C@H](C)NC(=O)c2sc(-c3ccccc3CN(C)C)nc2C(F)(F)F)c1 [Example 76] | 10
8 | 6.00 to 7.30 | CCN(CC)Cc1ccccc1-c1nc(C(F)(F)F)c(C(=O)NCc2cccc(F)c2)s1 [Example 79] | 3
9 | 6.00 to 7.30 | CCN(CC)Cc1ccccc1-c1nc(C(F)(F)F)c(C(=O)N[C@@H](C)c2cccc(OC)c2)s1 [Example 82] | 0.3
10 | – | CC(NC(=O)c1sc(-c2ccc(F)cc2)nc1C(F)(F)F)c1cccc(C(F)(F)F)c1 (centres unmarked) [Example 83] | 0.3
11 | – | COc1ccccc1-c1nc(C(F)(F)F)c(C(=O)NCc2ccccn2)s1 [Example 84] | 30
12 | – | COc1cccc(-c2nc(C(F)(F)F)c(C(=O)NCc3cccc(F)c3)s2)c1 [Example 85] | 30
13 | – | COc1cccc(-c2nc(C(F)(F)F)c(C(=O)NC(C)c3ccc4c(c3)CCO4)s2)c1 (centres unmarked) [Example 86] | 3
14 | – | CC(NC(=O)c1sc(-c2ccc3c(c2)OCO3)nc1C(F)(F)F)c1cccc(C(F)(F)F)c1 (centres unmarked) [Example 87] | 0.3
15 | – | COc1cccc(-c2nc(C(F)(F)F)c(C(=O)NCc3ccccn3)s2)c1 [Example 88] | 30
16 | – | COc1ccc(-c2nc(C(F)(F)F)c(C(=O)NC(C)c3cccc(C(F)(F)F)c3)s2)cc1OC (centres unmarked) [Example 89] | 30
17 | – | COc1ccc(-c2nc(C(F)(F)F)c(C(=O)NC(C)c3ccc(OC)c(OC)c3)s2)cc1OC (centres unmarked) [Example 90] | 10
18 | – | COc1ccc(-c2nc(C(F)(F)F)c(C(=O)NCc3cccc(OC(F)(F)F)c3)s2)cc1OC [Example 91] | 30
19 | – | CC(NC(=O)c1sc(-c2cccc(F)c2)nc1C(F)(F)F)c1cccc(C(F)(F)F)c1 (centres unmarked) [Example 92] | 3
20 | – | O=C(NCc1cccc(F)c1)c1sc(-c2cccc(F)c2)nc1C(F)(F)F [Example 93] | 10
21 | – | CC(NC(=O)c1sc(-c2cccc(F)c2)nc1C(F)(F)F)c1cccc(OC(F)(F)F)c1 (centres unmarked) [Example 95] | 0.3
22 | – | COc1ccccc1-c1nc(C(F)(F)F)c(C(=O)NC(C)c2cccc(Br)c2)s1 (centres unmarked) [Example 96] | 3

Row | pEC50 | Compound | Min. conc. response [µM]
23 | – | CC(NC(=O)c1sc(-c2cccc(N3CCOCC3)c2)nc1C(F)(F)F)c1cccc(OC(F)(F)F)c1 (centres unmarked) [Example 97] | 10
24 | – | CC(NC(=O)c1sc(-c2cccc(N3CCOCC3)c2)nc1C(F)(F)F)c1cccc(C(F)(F)F)c1 (centres unmarked) [Example 98] | 3
25 | – | CCN(CC)CCOc1ccccc1-c1nc(C(F)(F)F)c(C(=O)N[C@@H](C)c2cccc(N3CCOCC3)c2)s1 [Example 100] | 30
26 | – | CCN(CC)CCOc1ccccc1-c1nc(C(F)(F)F)c(C(=O)N[C@@H](C)c2cccc(OC)c2)s1 [Example 101] | 3
27 | – | CC(NC(=O)c1sc(-c2ccccc2F)nc1C(F)(F)F)c1cccc(N)c1 (centres unmarked) [Example 102] | 0.3
28 | – | CC(NC(=O)c1sc(-c2csc3ccccc23)nc1C(F)(F)F)c1cccc(CN2CCCC2)c1 (centres unmarked) [Example 103] | 0.3
29 | – | CCN(CC)CCOc1ccccc1-c1nc(C(F)(F)F)c(C(=O)NC(C)c2cccc(OC(F)(F)F)c2)s1 (centres unmarked) [Example 104] | 10
30 | – | CC(NC(=O)c1sc(-c2ccccc2CN(C)C)nc1C(F)(F)F)c1cccc(C(F)(F)F)c1 (centres unmarked) [Example 105] | 30
31 | – | CCN(CC)Cc1ccccc1-c1nc(C(F)(F)F)c(C(=O)NC(C)c2cccc(CN3CCOCC3)c2)s1 (centres unmarked) [Example 106] | 10
32 | – | CCN(CC)Cc1ccccc1-c1nc(C(F)(F)F)c(C(=O)NC(C)c2cccc(-c3cccnc3)c2)s1 (centres unmarked) [Example 107] | 30
33 | – | CC(NC(=O)c1sc(-c2ccccc2CN2CCOCC2)nc1C(F)(F)F)c1cccc(OC(F)(F)F)c1 (centres unmarked) [Example 108] | 0.3
34 | – | O=C(NCc1cccc(OC(F)(F)F)c1)c1sc(-c2ccccc2CN2CCOCC2)nc1C(F)(F)F [Example 109] | 3
35 | – | C[C@H](NC(=O)c1sc(-c2ccccc2CN2CCOCC2)nc1C(F)(F)F)c1cccc(N2CCOCC2)c1 [Example 110] | 3
36 | – | COc1cccc([C@H](C)NC(=O)c2sc(-c3ccccc3CN3CCOCC3)nc2C(F)(F)F)c1 [Example 111] | 0.3
37 | – | COc1cccc([C@H](C)NC(=O)c2sc(-c3ccccc3CN3CCN(C)CC3)nc2C(F)(F)F)c1 [Example 112] | 30
38 | – | CCN(Cc1ccncc1)Cc1ccccc1-c1nc(C(F)(F)F)c(C(=O)NC(C)c2cccc(OC(F)(F)F)c2)s1 (centres unmarked) [Example 113] | 0.3
39 | – | CCN(Cc1ccncc1)Cc1ccccc1-c1nc(C(F)(F)F)c(C(=O)NCc2cccc(OC)c2)s1 [Example 114] | 3
40 | – | CCN(Cc1ccncc1)Cc1ccccc1-c1nc(C(F)(F)F)c(C(=O)N[C@@H](C)c2cccc(N3CCOCC3)c2)s1 [Example 115] | 3
41 | – | CCN(Cc1ccncc1)Cc1ccccc1-c1nc(C(F)(F)F)c(C(=O)NC(C)c2cccc(CN3CCOCC3)c2)s1 (centres unmarked) [Example 116] | 3
42 | – | CCN(Cc1ccncc1)Cc1ccccc1-c1nc(C(F)(F)F)c(C(=O)NC(C)c2cccc(-c3cccnc3)c2)s1 (centres unmarked) [Example 117] | 0.3
43 | – | Cc1cccnc1-c1nc(C(F)(F)F)c(C(=O)N[C@@H](C)c2cccc(N3CCOCC3)c2)s1 [Example 118] | 10
44 | – | CC(NC(=O)c1sc(-c2ncccc2CN2CCOCC2)nc1C(F)(F)F)c1cccc(C(F)(F)F)c1 (centres unmarked) [Example 124] | 3
